From article PMC9287337 (Scientific Reports, 2022)
Where two headings read alike, the source gives them in different places.

Key:
Assay type in all cases: cell-based, mouse
[1] = test system: p-JNK; assay: Western blot of p-JNK; settings: 0.01–10 µM, 15 min
Protocol: (§1) Whole cell lysates were prepared from the treated cultures for Western blot analysis.
(§2) C2C12 cells (3 mL) were seeded into 35 mm dishes at 7.5 × 10^4 cells/mL in complete growth medium, incubated to reach 80% confluence and serum-starved for 16–18 h. […] Thereafter, the cultures were washed with ice-cold 1X TBS for 2 min. Lysis Buffer (Cell Signaling Technology, Danvers, MA, USA) supplemented with 1 mM PMSF (phenylmethylsulphonyl fluoride) was added to the cultures and whole cell lysates were prepared.
(§3) Laemmli sample buffer (4X) was added to the whole cell lysates (20 µg) to a final concentration of 1X and heated at 100 °C for 5 min. The samples were immediately cooled on ice for 5 min and centrifuged at 9500 rpm for 2 min at RT. The samples and the Precision Plus Protein Standard (5 µL; Bio-Rad, Hercules, CA, USA) were loaded on 12% SDS polyacrylamide gels. […] Finally, the blots were developed using SuperSignal ™ West Femto HRP Substrate solutions (Thermo Scientific, Rockford, IL, USA) and analysed using the Omega Lum™ G Imaging System (San Francisco, CA, USA). Quantification of chemiluminescent signals was carried out using ImageJ (Image Processing and Analysis in Java 1.8.0_112).

[2] = test system: C2C12 cells; assay: Cell cycle analysis by flow cytometry; settings: 24 h
Protocol: C2C12 cells were starved in SS medium followed by 24-h treatment with 0.01–10 µM SY-LB-35 or SY-LB-57. The distribution of cell cycle phases was analyzed with respect to the control, untreated cells (Fig. 9). […] Furthermore, the percentage of cells in G0/G1 phase decreased with respect to control following the treatment of C2C12 cells with the indolyl-benzimidazole compounds (****p < 0.0005; ***p < 0.001; **p < 0.01; Fig. 9A). Thus, SY-LB-35 and SY-LB-57 at all tested concentrations shifted the cell cycle in C2C12 cells toward proliferation causing a significant decline in the population of cells in G0/G1 phase and a sharp increase in the percentage of cells present in proliferative phases of the cell cycle (S and G2/M).
Equal numbers (~ 10^6) of cells, from each treatment counted as above were collected, fixed with 4% paraformaldehyde (PFA) for 10 min at RT and pelleted at 300 g for 5 min. Cell pellets were washed with Stain buffer (BD Pharmingen, San Diego, CA, USA) followed by permeabilization with 90% ice-cold methanol for 15 min at 4 °C. The cells were again washed with Stain buffer and the pelleted cells were stained with BD Pharmingen Propidium Iodide/RNase Staining Buffer (0.5 mL/10^6 cells) for 30 min at RT while protected from light. Following two more washes, the pellet was resuspended in 225 µL Stain buffer and the cells were divided into 3 microcentrifuge tubes (75 µL each) for analysis with the Amnis® Flowsight Imaging Flow Cytometer (Austin, TX, USA). IDEAS® software (version 6.2, Seattle, WA, USA) was used to analyse the data files.

[3] = test system: p-p38; assay: Western blot of p-p38; settings: 0.01–10 µM, 15 min
Protocol: as §1, §2, §3

[4] = test system: p-PI3K (PI3K phosphorylation); assay: Western blot of p-PI3K normalized to β-actin; settings: 15 min; for activity at 0.01 µM / activity at 0.1 µM / activity at 1 µM / activity at 10 µM: Mus musculus, 0.25 h, read-out: p-PI3K level, percent of control; for Increase in level of PI3K phosphorylation: all concentrations tested 0.01–10 µM
Protocol: To directly assess the activation of the PI3K enzyme, Western blot analysis was carried out on C2C12 cell whole cell lysates after a 15-min stimulation with 0.01–10 µM SY-LB-35 or SY-LB-57.
as §2
Laemmli sample buffer (4X) was added to the whole cell lysates (20 µg) to a final concentration of 1X and heated at 100 °C for 5 min. The samples were immediately cooled on ice for 5 min and centrifuged at 9500 rpm for 2 min at RT. The samples and the Precision Plus Protein Standard (5 µL; Bio-Rad, Hercules, CA, USA) were loaded on 12% SDS polyacrylamide gels. Protein was separated using the Bio-Rad Mini Protean II Gel Electrophoresis System at 135 V. Meanwhile, 0.2 µm nitrocellulose membranes were pre-incubated in cold 1X Transfer Buffer (10 mM Tris/2.5 mM glycine/20% methanol) for at least 30 min. Next, the separated proteins were transferred at 100 V onto the pre-equilibrated nitrocellulose membranes for 1 h in Transfer Buffer, followed by blocking in 5% BSA/0.1% Tween 20/1X TBS for 30 min. The membranes were incubated overnight at 4 °C with the desired primary rabbit monoclonal antibody (p-Smad1/5(S463/465)/9(S465/467), Smad1 (D5907) XP®, p-Akt (Ser473) (D9E) XP®, or Akt (pan) (C67E7), p-SAPK/JNK (Thr183/Tyr185), SAPK/JNK, β-actin (Cell Signaling Technologies, Danvers, MA, USA)) or rabbit polyclonal antibody (phospho-PI3 Kinase p85 (Tyr458)/p55 (Tyr199) antibody (Cell Signaling Technologies, Danvers, MA, USA), p-p38 MAPK, p38 MAPK, p-ERK1, ERK1/2) (Abclonal, Woburn, MA, USA)) in Antibody Dilution Buffer (1% BSA/0.1% Tween 20/1X TBS) and then washed with 1X TBST (0.1% Tween 20/1X TBS) three times for 15 min. HRP-conjugated Goat Anti-Rabbit IgG secondary antibody (Santa Cruz Biotechnology, Inc., Dallas, TX, USA) in Antibody Dilution Buffer was added to the membranes for 1 h at RT followed by three 15-min washes with 1X TBST. Finally, the blots were developed using SuperSignal ™ West Femto HRP Substrate solutions (Thermo Scientific, Rockford, IL, USA) and analysed using the Omega Lum™ G Imaging System (San Francisco, CA, USA). Quantification of chemiluminescent signals was carried out using ImageJ (Image Processing and Analysis in Java 1.8.0_112).

[5] = Cell viability assay in presence or absence of Dorsomorphin; settings: mouse, serum-starved C2C12 cells
Protocol: To resolve whether the SY-LB-35 or SY-LB-57 compound requires type I BMP receptor activity for the induction of cell viability in C2C12 cells, cell viability assays were carried out in the presence or absence of 10 µM DM.
C2C12 cells (100 µL) were seeded in a 96-well plate at 5 × 10^5 cells/mL and incubated overnight in complete growth media to achieve 80% confluency followed by serum-starvation for 16–18 h. […] For BMP receptor inhibition, cell viability assays were carried out in presence or absence of Dorsomorphin (DM; 10 µM; Sigma Aldrich, St. Louis, MO, USA), a non-selective inhibitor of type I BMP receptor activity.
Next, reagents from the RealTime-Glo™ MT Cell Viability Assay Kit (Promega, Madison, WI, USA) were diluted in SS medium and used according to manufacturer’s protocol. Cellular luminescence was measured using the FilterMax F5 Multi-mode Microplate Reader (Molecular Devices, San Jose, CA, USA). Data from three independent experiments with individual experiments carried out in triplicate was determined and reported as a percentage of control.

[6] = Dorsomorphin 10 µM, read-out: Cell viability, DM(+)
[7] = without Dorsomorphin, read-out: Cell viability, DM(−)

Compound	p-JNK level [1]	Cells in G0/G1 phase ([2]; 0.01 µM)	Cells in G2/M phase ([2]; 0.01 µM)	Cells in S phase ([2]; 0.01 µM)	Cells in G0/G1 phase ([2]; 0.1 µM)	Cells in G2/M phase ([2]; 0.1 µM)	Cells in S phase ([2]; 0.1 µM)	Cells in G0/G1 phase ([2]; 1 µM)	Cells in G2/M phase ([2]; 1 µM)	Cells in S phase ([2]; 1 µM)	Cells in G0/G1 phase ([2]; 10 µM)	Cells in G2/M phase ([2]; 10 µM)	Cells in S phase ([2]; 10 µM)	p-p38 level [3]	activity at 0.01 µM [4]	activity at 0.1 µM [4]	activity at 1 µM [4]	activity at 10 µM [4]	Increase in level of PI3K phosphorylation [4]	viability at 24 h, 0.01 µM [5, 6]	also measured
COc1ccc2[nH]c(-c3nc4ccccc4[nH]3)cc2c1 [SY-LB-57]	stimulated increases	76%	13%	13%	76%	11%	14%	77%	11%	12%	79%	10%	13%	stimulated increases	443%	404%	471%	451%	> 300 % increase	120%	viability at 24 h, 0.01 µM [5, 7]: 384%; viability at 24 h, 0.1 µM [5, 6]: 107%; viability at 24 h, 0.1 µM [5, 7]: 380%; viability at 24 h, 1 µM [5, 6]: 111%; viability at 24 h, 1 µM [5, 7]: 321%; viability at 24 h, 10 µM [5, 6]: 111%; viability at 24 h, 10 µM [5, 7]: 289%
Oc1ccc2[nH]c(-c3nc4ccccc4[nH]3)cc2c1 [SY-LB-35]	stimulated increases	76%	13%	11%	76%	12%	12%	77%	11%	12%	76%	11%	12%	stimulated increases	431%	434%	492%	484%	> 300 % increase	98%	viability at 24 h, 0.01 µM [5, 7]: 266%; viability at 24 h, 0.1 µM [5, 6]: 103%; viability at 24 h, 0.1 µM [5, 7]: 269%; viability at 24 h, 1 µM [5, 6]: 102%; viability at 24 h, 1 µM [5, 7]: 218%; viability at 24 h, 10 µM [5, 6]: 82%; viability at 24 h, 10 µM [5, 7]: 147%; viability at 24 h, 100 µM [5, 6]: 30%; viability at 24 h, 100 µM [5, 7]: 69%
